Assay results reported in US4952493A, “Peptide substrates for detecting virus-specified protease activity” (priority 1987, dated 1990).
Where “and” joins values, the source holds several entries; their conditions need not be identical. Equal values may be shown once. Numbered stars: 1 amine (or outer) side, 2 acyl side, 3 side chain; on linkers, the order of the positions; unused ones are H or OH. Peptide text beside a SMILES is read from it. * marks the point of attachment. AMC = Cc1cc(=O)oc2cc(N*)ccc12; Suc = O=C(CCC(=O)[*:2])[*:1]

Tested on: virus-specified protease activity in extracts of Poliovirus Type 2 infected HeLa-O cells
Type: biochemical
Settings: pH 5

Cc1cc(=O)oc2cc(NC(=O)[C@H](CCC(N)=O)NC(=O)[C@H](CC(C)C)NC(=O)CNC(=O)[C@H](Cc3ccccc3)NC(=O)CCC(=O)O)ccc12 [Suc-Phe-Gly-Leu-Gln-AMC] (Suc-FGLQ-{AMC})
Protease Activity, AMC Substrate: 22.5 and 11.4
